The results in this text go back to US6703421B1, “Methods of using phenylmethylbenzoquinone and hydroquinone compounds for treatment of myocarditis, dilated cardiomyopathy and heart failure” (Daiichi Suntory Pharma Co., Ltd., priority 1999, dated 2004).

Like-named read-outs stand apart in the source and are kept apart here.

One experiment relates to NF-κB. Description: NF-κB luciferase reporter assay in A549/NF-κBLuc cells. It is filed as cell-based, human. To be noted: for IC50: Homo sapiens, A549/NF-κBLuc, luciferase activity. The protocol:
Using lipofectamine (Lifetech Oriental K. K., Tokyo) according to the conventional method, human lung cancer cell line A549 cells (ATCC catalog no. CCL185), which are known to express hiNOS by cytokine stimulation, were co-transfected with pNFκB-Luc, which are plasmid controlled by a NF-κB binding consensus sequence, and pSV2neo (Clontech, U.S.A.), and then A549/NF-κBLuc, the cell that has stably introduced pNFκB-Luc, was selected by adding G418 sulfate (1 mg/ml, Lifetech Oriental K. K.) to the culture medium.
The luciferase activity was measured using the Luciferase Assay System (Promega, U.S.A.).
Background: Reporter assays use an easily measured gene product as a stand-in for the process of interest.

For experiment [1], the system named is EMC virus-inoculated DBA/2 mice (viral myocarditis). Description: Survival rate in murine viral myocarditis model. The class given is in vivo, mouse. The protocol: Viral myocarditis mice were prepared using the procedure described below in accordance with a known method (Shioi T. et al. (1997) J. Mol. Cell. Cardiol., 29, 2327-2334). Variant M (acquired from the American Type Culture Collection) was used for the EMC virus for inoculation and prepared to 100 pfu/ml in Eagle's MEM medium (Nissui Pharmaceutical). Four-week-old DBA/2 male mice were divided into two groups, and intraperitoneally inoculated with EMC virus at 10 pfu/animal. Test compound was then administered intraperitoneally and daily for 14 days under the following conditions to each group starting 3 hours after inoculation.
The test compound was used after dissolving in 0.5% aqueous gum arabic solution (3 mg/ml). In the present example, the compound of Production Example 4 was used in the test as the NF-κB inhibitor.
Test group (n=10): Administration of NF-κB inhibitor (Production Example 4) at 30 mg/kg body weight Control group (n=10): 0.5% aqueous gum arabic solution
The experiment was conducted in the following three groups using the same method as Example 2 and the compound of Production Example 7 for the NF-κB inhibitor. The test compound was used after dissolving in 10% aqueous dimethylsulfoxide solution (DMSO) (test group 1: 0.3 mg/ml, test group 2: 3 mg/ml). The survival rates were tested for the presence of a significant difference according to the Kaplan-Meier method, and statistical significance was defined as p<0.05.
Test group 1 (n=21): Administration of NF-κB inhibitor (Production Example 7) at 3 mg/kg body weight
Test group 2 (n=21): Administration of NF-κB inhibitor (Production Example 7) at 30 mg/kg body weight
Four-week-old DBA/2 male mice were inoculated with EMC virus using the same method as Example 2, and the test compound was administered orally and daily for 14 days under the following conditions to each group starting 2 hours after inoculation.
The test compound was used after dissolving in 10% aqueous sulfobutylcyclodextrin solution (3 mg/ml). In the present example, the compound of Production Example 44 was used in the test as the NF-κB inhibitor.
Test group (n=20): Administration of NF-κB inhibitor (Production Example 44) at 30 mg/kg body weight

Where [2] appears, read: IL-1β (1 ng/ml) for 4 hours, read-out: IC50 (μM) IL-1 stimulation.
Where [3] appears, read: TNF-α (500 ng/ml) for 4 hours, read-out: IC50 (μM) TNF stimulation.

As for `COC1=C(OC)C(=O)C(Cc2ccc(CCC(=O)N3CCSCC3)cc2)=C(C)C1=O` [Prod. Ex. 4, N-[3-[4-(5,6-Dimethoxy-3-methyl-1,4-benzoquinon-2-ylmethyl)phenyl]propionyl]thimorpholine], the “luciferase activity regulated by activation of NF-κB” value in the experiment with NF-κB (A549/NF-κBLuc stimulated with IL-1β (1 ng/ml) or TNF-α (500 ng/ml) for 4 hours, dose-dependent, FIG. 1) was “suppresses luciferase activity”. The 50% inhibitory concentration (IC50) with NF-κB (setting [2]) and with NF-κB (setting [3]) was 10 µM in each case. Also, the survival rate result in experiment [1] (30 mg/kg intraperitoneally daily for 14 days, 0.5% gum arabic, FIG. 2) is recorded as “improves the survival rate”. `COC1=C(OC)C(=O)C(Cc2cccc(C(=O)N3CCOCC3)c2)=C(C)C1=O` [Prod. Ex. 44, N-[3-(5,6-Dimothoxy-3-methyl-1,4-benzoquinon-2-ylmethyl)benzoyl]morpholine]: in the experiment with NF-κB (setting [2]), the IC50 was 39 µM. Moreover, the survival rate entry in experiment [1] (30 mg/kg orally daily for 14 days, 10% sulfobutylcyclodextrin, FIG. 4) is recorded as “improves survival rate”. In the case of `COC1=C(OC)C(=O)C(Cc2ccccc2CCC(=O)N2CCOCC2)=C(C)C1=O` [Prod. Ex. 71, N-[3-[2-(5,6-Dimethoxy-3-methyl-1,4-benzoquinon-2-ylmethyl)phenyl]propionyl]morpholine], the IC50 in the experiment on NF-κB (setting [2]) amounted to 56 µM.

Consider `COC1=C(OC)C(=O)C(Cc2ccccc2CCC(=O)N2CCSCC2)=C(C)C1=O` [Prod. Ex. 72, N-[3-[2-(5,6-dimethoxy-3-methyl-1,4-benzoquinon-2-ylmethyl)phenyl]propionyl]thiomorpholine], for which the IC50 with NF-κB (setting [2]) came to 42 µM. The same measure, in the same setting: in the case of `COC1=C(OC)C(=O)C(Cc2ccccc2CCC(=O)NC(C)C)=C(C)C1=O` [Prod. Ex. 73, N-[3-[2-(5,6-Dimethoxy-3-methyl-1,4-benzoquinon-2-ylmethyl)phenyl]propionyl]isopropylamine] it was 34 µM; in that of `COC[C@H]1CCCN1C(=O)CCc1ccc(CC2=C(C)C(=O)C(OC)=C(OC)C2=O)cc1` [Prod. Ex. 76], 14 µM. On the same count and under the same terms, in the case of `COC1=C(OC)C(=O)C(Cc2ccc(CCC(=O)N3CCC(C(N)=O)CC3)cc2)=C(C)C1=O` [Prod. Ex. 79] it was 13 µM; in that of `COC1=C(OC)C(=O)C(Cc2ccc(CCC(=O)N3CCC(C)CC3)cc2)=C(C)C1=O` [Prod. Ex. 81], 5 µM; in that of `COC1=C(OC)C(=O)C(Cc2ccc(CCC(=O)N3CCCCC3C)cc2)=C(C)C1=O` (stereo not drawn) [Prod. Ex. 83], 1 µM. With `COC1=C(OC)C(=O)C(Cc2ccc(CCC(=O)N3CCCC(C)C3)cc2)=C(C)C1=O` (stereo not drawn) [Prod. Ex. 85], in the experiment with NF-κB (setting [2]), the 50% inhibitory concentration (IC50) is 5 µM. On the same count and under the same terms, in the case of `COC1=C(OC)C(=O)C(Cc2ccc(CCC(=O)Nc3ccc(OC)cc3)cc2)=C(C)C1=O` [Prod. Ex. 94] it was 1 µM.

In the case of `COC1=C(OC)C(=O)C(Cc2ccc(CCC(=O)Nc3ccccc3O)cc2)=C(C)C1=O` [Prod. Ex. 96], the IC50 in the experiment with NF-κB (setting [2]) came to 17 µM. Still for that read-out and setting: the value for `COC1=C(OC)C(=O)C(Cc2ccc(CCC(=O)Nc3ccc(OC)c(OC)c3)cc2)=C(C)C1=O` [Prod. Ex. 103] was 10 µM; that for `COC1=C(OC)C(=O)C(Cc2ccc(CCC(=O)NC(C)CO)cc2)=C(C)C1=O` (stereo not drawn) [Prod. Ex. 104] was 12 µM. In the case of `CCOC(=O)C1CCCCN1C(=O)CCc1ccc(CC2=C(C)C(=O)C(OC)=C(OC)C2=O)cc1` (stereo not drawn) [Prod. Ex. 105], in the experiment with NF-κB (setting [2]), the IC50 was determined as 16 µM. Take `COC1=C(OC)C(=O)C(Cc2ccc(CCC(=O)N3CCC[C@H]3C(N)=O)cc2)=C(C)C1=O` [Prod. Ex. 106]: the IC50 with NF-κB (setting [2]) is 7 µM. Same read-out and setting: in the case of `COC1=C(OC)C(=O)C(Cc2ccc(CCC(=O)Nc3ccc(CC#N)cc3)cc2)=C(C)C1=O` [Prod. Ex. 111] it was 14 µM; in that of `CCCCCc1ccc(NC(=O)CCc2ccc(CC3=C(C)C(=O)C(OC)=C(OC)C3=O)cc2)cc1` [Prod. Ex. 113], 16 µM. Turning to `COC1=C(OC)C(=O)C(Cc2ccc(CCC(=O)N[C@@H](C)c3ccccc3)cc2)=C(C)C1=O` [Prod. Ex. 120], the IC50 with NF-κB (setting [2]) stood at 2 µM. Same read-out and setting: in the case of `COC1=C(OC)C(=O)C(Cc2ccc(CCC(=O)N[C@H](C)c3ccccc3)cc2)=C(C)C1=O` [Prod. Ex. 121] it was 7 µM; in that of `COC1=C(OC)C(=O)C(Cc2ccc(CCC(=O)NC(C)CC(C)C)cc2)=C(C)C1=O` (stereo not drawn) [Prod. Ex. 128], 19 µM; in that of `COC1=C(OC)C(=O)C(Cc2ccc(CCC(=O)NC3CCCCCC3)cc2)=C(C)C1=O` [Prod. Ex. 136], 18 µM. Still for that read-out and setting: the value for `COC1=C(OC)C(=O)C(Cc2ccc(CCC(=O)N3CC(C)CC(C)C3)cc2)=C(C)C1=O` (stereo not drawn) [Prod. Ex. 137] was 7 µM; that for `CCOC(=O)N1CCN(C(=O)CCc2ccc(CC3=C(C)C(=O)C(OC)=C(OC)C3=O)cc2)CC1` [Prod. Ex. 147] was 47 µM.

In the case of `COC1=C(OC)C(=O)C(Cc2ccc(CCC(=O)N3CCN(c4ccccc4)CC3)cc2)=C(C)C1=O` [Prod. Ex. 148], in the experiment with NF-κB (setting [2]), the IC50 was 25 µM.

On to `COC1=C(OC)C(=O)C(Cc2ccc(CCC(=O)N3CCC(O)(c4ccccc4)CC3)cc2)=C(C)C1=O` [Prod. Ex. 151], for which the IC50 in the experiment on NF-κB (setting [2]) is 20 µM. The same measure, in the same setting: in the case of `COC1=C(OC)C(=O)C(Cc2ccc(CCC(=O)N3CCC(O)(c4ccc(Cl)cc4)CC3)cc2)=C(C)C1=O` [Prod. Ex. 154] it was 28 µM. Same read-out and setting: in the case of `COC1=C(OC)C(=O)C(Cc2ccc(CCC(=O)N3CCN(c4ccccc4OC)CC3)cc2)=C(C)C1=O` [Prod. Ex. 163] it was 19 µM; in that of `COC1=C(OC)C(=O)C(Cc2ccc(CCC(=O)N3CCc4cc(OC)c(OC)cc4C3)cc2)=C(C)C1=O` [Prod. Ex. 167], 15 µM. On to `COC1=C(OC)C(=O)C(Cc2ccc(CCC(=O)N3CCC(C(C)=O)(c4ccccc4)CC3)cc2)=C(C)C1=O` [Prod. Ex. 168], for which the IC50 in the experiment with NF-κB (setting [2]) was found to be 9 µM. Consider `COC1=C(OC)C(=O)C(Cc2ccc(CCC(=O)N3CCc4ccccc4C3)cc2)=C(C)C1=O` [Prod. Ex. 169], for which, in the experiment with NF-κB (setting [2]), the IC50 amounted to 43 µM.

For the compound `COC1=C(OC)C(=O)C(Cc2ccc(CCC(=O)NCCC(C)C)cc2)=C(C)C1=O` [Prod. Ex. 173], in the experiment on NF-κB (setting [2]), the IC50 was 36 µM. On to `COC1=C(OC)C(=O)C(Cc2ccc(CCC(=O)NC3CCCCC3)cc2)=C(C)C1=O` [Prod. Ex. 175], for which, in the experiment on NF-κB (setting [2]), the IC50 came out at 19 µM. Turning to `COC1=C(OC)C(=O)C(Cc2ccc(CCC(=O)Nc3ccc(O)cc3)cc2)=C(C)C1=O` [Prod. Ex. 189], the IC50 in the experiment on NF-κB (setting [2]) was 28 µM.

In the case of `Cc1csc2ncnc(NC3Cc4ccccc4C3)c12` [Prod. Ex. 190, 4-(2-Indanylamino)-5-methylthieno[2,3-d]pyrimidine], the results for the IC50 in the experiment with NF-κB (setting [2]) and in the experiment with NF-κB (setting [3]) were 0.71 µM and 1.1 µM, respectively.

For `CC(C)c1csc2ncnc(NC3Cc4ccccc4C3)c12` [Prod. Ex. 211, 4-(2-Indanylamino)-5-isopropylthieno[2,3-d]pyrimidine], the figures for the IC50 with NF-κB (setting [2]) and in the experiment on NF-κB (setting [3]) were 0.064 µM and 0.13 µM, respectively. With `Cc1csc2ncnc(NC3Cc4ccc(Oc5ccccc5)cc4C3)c12` (stereo not drawn) [Prod. Ex. 214, 4-(5-Phenoxyindan-2-yl)amino-5-methylthieno[2,3-d]pyrimidine], the IC50 in the experiment with NF-κB (setting [2]) stood at 0.15 µM. In the case of `Cc1csc2ncnc(NC3Cc4ccc(C(=O)NCc5ccccc5)cc4C3)c12` (stereo not drawn) [Prod. Ex. 220, N-Benzyl-2-(5-methylthieno[2,3-d]pyrimidine-4-yl)amino-5-indan Carboxamide], the half-maximal inhibitory concentration (IC50) in the experiment on NF-κB (setting [2]) is 0.072 µM; with NF-κB (setting [3]) it was 0.12 µM.

As usually defined, the IC50 is the midpoint of a concentration-inhibition curve.
